Results published in patent US7807701B2, “Dibenzylamine compounds and pharmaceutical use thereof” (Japan Tobacco Inc., priority 2002, dated 2010).
Where a name gives a salt, the structure may show the parent alone.

target: T1, CETP (Homo sapiens, UniProt P11597); experiment: Inhibitory effect in vitro on CETP activity in total plasma; format: biochemical; settings: plasma of healthy subject with [3H]CE-HDL3, 37° C., 4 hr; average values
T1 construct: The donor lipoprotein obtained above was added to plasma of healthy subject; from tissue; host or cells: whole plasma of healthy subject
T1 sequence (P11597 18-493): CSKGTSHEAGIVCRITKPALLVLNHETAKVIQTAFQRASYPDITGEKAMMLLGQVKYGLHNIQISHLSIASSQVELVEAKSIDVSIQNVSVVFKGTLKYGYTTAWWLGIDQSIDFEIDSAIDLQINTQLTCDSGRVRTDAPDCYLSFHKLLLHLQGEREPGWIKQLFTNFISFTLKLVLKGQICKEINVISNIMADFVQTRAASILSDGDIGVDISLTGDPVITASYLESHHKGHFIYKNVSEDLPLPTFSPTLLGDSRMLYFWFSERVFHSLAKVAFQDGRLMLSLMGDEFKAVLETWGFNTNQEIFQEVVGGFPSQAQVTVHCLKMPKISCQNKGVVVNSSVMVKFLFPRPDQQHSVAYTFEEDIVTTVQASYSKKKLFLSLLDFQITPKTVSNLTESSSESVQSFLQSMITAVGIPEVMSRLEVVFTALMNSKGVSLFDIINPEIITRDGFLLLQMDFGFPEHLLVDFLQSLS
Protocol: Potassium bromide (KBr) was added to plasma (40 mL) of healthy subject and the mixture was adjusted to have a specific density d=1.125 g/mL. The mixture was subjected to density gradient centrifugation (227,000×g, 4° C., 17 hr) and a fraction showing a specific density of d>1.125 g/mL (HDL3 fraction) was harvested. The obtained fraction was dialyzed against PBS solution [10 mmol/L Na2HPO4; 10 mmol/L NaH2PO4; 0.15 mol/L NaCl; […] (pH 7.4)]. Then, tritium-labeled cholesterol (37 MBq) was dissolved in 95% ethanol, gradually added to the above-mentioned HDL3 fraction with stirring and incubated at 37° C. for 18 hr. [By this operation, tritium-labeled cholesterol was esterified by the action of lecithin acyl transferase (LCAT) present on the HDL3 surface and taken up into HDL3 as tritium-labeled cholesteryl ester ([^3H]CE)]. After incubation, KBr was added, the mixture was adjusted to have a specific density d=1.21 g/mL, subjected to density gradient centrifugation (227,000×g, 4° C., 17 hr) and a fraction of specific density […] was harvested. The obtained fraction was dialyzed against the aforementioned PBS solution to give HDL3 incorporating [^3H]CE ([^3H]CE-HDL3, specific density: 1.125<d<1.21, specific activity: 10,000 dpm/μL), which was used as a donor lipoprotein.
The donor lipoprotein obtained above was added to plasma of healthy subject to prepare a [^3H]CE-HDL3-containing plasma (1,000 dpm/μL). The compound was dissolved in dimethyl formamide. A solution of the compound or a solvent alone (2 μL) and the [^3H]CE-HDL3-containing plasma (100 μL) were added into a microtube, and this was incubated at 37° C. or 4° C. for 4 hr. After ice-cooling, TBS solution [100 μL, 20 mmol/L Tris; 0.15 mol/L NaCl (pH 7.4)] containing 1 mol/L magnesium chloride and 2% dextran sulfate was added to each microtube and the mixture was thoroughly stirred. After keeping at 4° C. for 30 min, the mixture was centrifuged (10,000×g, 4° C., 10 min), and the radioactivity in the obtained supernatant (HDL fraction) was measured with a scintillation counter. […] The concentration of the compound necessary for inhibiting the CETP activity by 50% was calculated as an IC50 value.

| SMILES | IC50 [µM] |
| --- | --- |
| CCN(C[C@H]1CC[C@H](C(=O)O)CC1)c1cc2c(cc1CN(Cc1cc(C(F)(F)F)cc(C(F)(F)F)c1)c1nnn(C)n1)CCC2 [Example 51, trans-4-{[N-(6-{[N′-[3,5-bis(trifluoromethyl)benzyl]-N′-(2-methyl-2H-tetrazol-5-yl)amino]methyl}indan-5-yl)-N-ethylamino]methyl}cyclohexanecarboxylic acid hydrochloride] | 0.41 |
| CCN(C[C@H]1CC[C@H](C(=O)O)CC1)c1cc2c(cc1CN(Cc1cc(C#N)cc(C(F)(F)F)c1)c1nnn(C)n1)CCC2 [Example 52, trans-4-{[N-(6-{[N′-(3-cyano-5-trifluoromethylbenzyl)-N′-(2-methyl-2H-tetrazol-5-yl)amino]methyl}indan-5-yl)-N-ethylamino]methyl}cyclohexanecarboxylic acid hydrochloride] | 0.37 |
| CCN(C[C@H]1CC[C@H](C(=O)O)CC1)c1cc2c(cc1CN(Cc1cc(C(F)(F)F)cc(C(F)(F)F)c1)c1cc(C)no1)CCC2 [Example 53, trans-4-{[N-(6-{[N′-[3,5-bis(trifluoromethyl)benzyl]-N′-(3-methylisoxazol-5-yl)amino]methyl}indan-5-yl)-N-ethylamino]methyl}cyclohexanecarboxylic acid hydrochloride] | 0.7 |
| CCN(CCCCC(=O)OC)c1cc2c(cc1CN(Cc1cc(C#N)cc(C(F)(F)F)c1)c1ccn(C)n1)CCC2 [Example 55, methyl 5-[N-(6-{[N′-(3-cyano-5-trifluoromethylbenzyl)-N′-(1-methyl-1H-pyrazol-3-yl)amino]methyl}indan-5-yl)-N-ethylamino]pentanoate hydrochloride] | 0.77 |
| CCN(C[C@H]1CC[C@H](C(=O)O)CC1)c1cc2c(cc1CN(Cc1cc(C#N)cc(C(F)(F)F)c1)c1ncn(C)n1)CCC2 [Example 60, trans-4-{[N-(6-{[N′-(3-cyano-5-trifluoromethylbenzyl)-N′-(1-methyl-1H-[1,2,4]triazol-3-yl)amino]methyl}indan-5-yl)-N-ethylamino]methyl}cyclohexanecarboxylic acid] | 0.78 |
| CCN(CCCCC(=O)OC)c1cc2c(cc1CN(Cc1cc(C(F)(F)F)cc(C(F)(F)F)c1)c1ccn(C)n1)CCCC2 [Example 63, methyl 5-[N-(3-{[N′-[3,5-bis(trifluoromethyl)benzyl]-N′-(1-methyl-1H-pyrazol-3-yl)amino]methyl}-5,6,7,8-tetrahydronaphthalen-2-yl)-N-ethylamino]pentanoate hydrochloride] | 0.64 |
| CCN(CCCCC(=O)O)c1cc2c(cc1CN(Cc1cc(C#N)cc(C(F)(F)F)c1)c1ccn(C)n1)CCCC2 [Example 66, 5-[N-(3-{[N′-(3-cyano-5-trifluoromethylbenzyl)-N′-(1-methyl-1H-pyrazol-3-yl)amino]methyl}-5,6,7,8-tetrahydronaphthalen-2-yl)-N-ethylamino]pentanoic acid hydrochloride] | 0.87 |
| CCN(C[C@H]1CC[C@H](C(=O)O)CC1)c1cc2c(cc1CN(Cc1cc(C(F)(F)F)cc(C(F)(F)F)c1)c1nnn(C)n1)CCCC2 [Example 67, trans-4-{[N-(3-{[N′-[3,5-bis(trifluoromethyl)benzyl]-N′-(2-methyl-2H-tetrazol-5-yl)amino]methyl}-5,6,7,8-tetrahydronaphthalen-2-yl)-N-ethylamino]methyl}cyclohexanecarboxylic acid hydrochloride] | 0.26 |
| CCN(C[C@H]1CC[C@H](C(=O)O)CC1)c1cc2c(cc1CN(Cc1cc(C#N)cc(C(F)(F)F)c1)c1nnn(C)n1)CCCC2 [Example 68, trans-4-{[N-(3-{[N′-(3-cyano-5-trifluoromethylbenzyl)-N′-(2-methyl-2H-tetrazol-5-yl)amino]methyl}-5,6,7,8-tetrahydronaphthalen-2-yl)-N-ethylamino]methyl}cyclohexanecarboxylic acid hydrochloride] | 0.28 |
| CCN(C[C@H]1CC[C@H](C(=O)O)CC1)c1cc2c(cc1CN(Cc1cc(C(F)(F)F)cc(C(F)(F)F)c1)c1ncn(C)n1)CCCC2 [Example 69, trans-4-{[N-(3-{[N′-[3,5-bis(trifluoromethyl)benzyl]-N′-(1-methyl-1H-[1,2,4]triazol-3-yl)amino]methyl}-5,6,7,8-tetrahydronaphthalen-2-yl)-N-ethylamino]methyl}cyclohexanecarboxylic acid hydrochloride] | 0.34 |
| CCN(C[C@H]1CC[C@H](C(=O)O)CC1)c1cc2c(cc1CN(Cc1cc(C(F)(F)F)cc(C(F)(F)F)c1)c1cc(C)no1)CCCC2 [Example 71, trans-4-{[N-(3-{[N′-[3,5-bis(trifluoromethyl)benzyl]-N′-(3-methylisoxazol-5-yl)amino]methyl}-5,6,7,8-tetrahydronaphthalen-2-yl)-N-ethylamino]methyl}cyclohexanecarboxylic acid hydrochloride] | 0.44 |
| CCN(C[C@H]1CC[C@H](C(=O)O)CC1)c1cc2c(cc1CN(Cc1cc(C#N)cc(C(F)(F)F)c1)c1cc(C)no1)CCCC2 [Example 72, trans-4-{[N-(3-{[N′-(3-cyano-5-trifluoromethylbenzyl)-N′-(3-methylisoxazol-5-yl)amino]methyl}-5,6,7,8-tetrahydronaphthalen-2-yl)-N-ethylamino]methyl}cyclohexanecarboxylic acid hydrochloride] | 0.39 |

Continued by falling IC50, values first:

| IC50 [µM] | SMILES |
| --- | --- |
| 0.75 | CCN(CCCCC(=O)OC)c1cc2c(cc1CN(Cc1cc(C#N)cc(C(F)(F)F)c1)c1ccn(C)n1)CCCC2 [Example 64, methyl 5-[N-(3-{[N′-(3-cyano-5-trifluoromethylbenzyl)-N′-(1-methyl-1H-pyrazol-3-yl)amino]methyl}-5,6,7,8-tetrahydronaphthalen-2-yl)-N-ethylamino]pentanoate hydrochloride] |
| 0.715 | CCN(CCCCC(=O)O)c1cc2c(cc1CN(Cc1cc(C(F)(F)F)cc(C(F)(F)F)c1)c1ncn(C)n1)CCC2 [Example 58, 5-[N-(6-{[N′-[3,5-bis(trifluoromethyl)benzyl]-N′-(1-methyl-1H-[1,2,4]triazol-3-yl)amino]methyl}indan-5-yl)-N-ethylamino]pentanoic acid hydrochloride] |
| 0.54 | CCN(C[C@H]1CC[C@H](C(=O)O)CC1)c1cc2c(cc1CN(Cc1cc(C#N)cc(C(F)(F)F)c1)c1ncn(C)n1)CCCC2 [Example 70, trans-4-{[N-(3-{[N′-(3-cyano-5-trifluoromethylbenzyl)-N′-(1-methyl-1H-[1,2,4]triazol-3-yl)amino]methyl}-5,6,7,8-tetrahydronaphthalen-2-yl)-N-ethylamino]methyl}cyclohexanecarboxylic acid] |
| 0.43 | CCN(C[C@H]1CC[C@H](C(=O)O)CC1)c1cc2c(cc1CN(Cc1cc(C(F)(F)F)cc(C(F)(F)F)c1)c1ncn(C)n1)CCC2 [Example 59, trans-4-{[N-(6-{[N′-[3,5-bis(trifluoromethyl)benzyl]-N′-(1-methyl-1H-[1,2,4]triazol-3-yl)amino]methyl}indan-5-yl)-N-ethylamino]methyl}cyclohexanecarboxylic acid hydrochloride] |
| 0.29 | CCN(CCCCC(=O)O)c1cc2c(cc1CN(Cc1cc(C(F)(F)F)cc(C(F)(F)F)c1)c1ccn(C)n1)CCCC2 [Example 65, 5-[N-(3-{[N′-[3,5-bis(trifluoromethyl)benzyl]-N′-(1-methyl-1H-pyrazol-3-yl)amino]methyl}-5,6,7,8-tetrahydronaphthalen-2-yl)-N-ethylamino]pentanoic acid hydrochloride] |
